This is an account of results in patent US20230248762A1, “Method and composition for supporting normal blood calcium concentrations in mammals” (Contract Manufacturing Services, LLC, priority 2022, published 2023).

One data set deals with blood calcium. The following applies: oral 50 g calcium; cited from earlier work.
Data set [1] relates to plasma calcium concentration. Put plainly: Plasma calcium after calving, herds without anionic diet (Example 5). In kind it is in vivo, multiparous cows. From the text: For examples 2 thru 5, statistical analysis consisted of repeated measures analysis of variance with cow nested within treatment and time after bolus administration as the repeated measure. Treatment plasma calcium means were compared at each time point using Tukey's test of comparison of means and differences are declared to be significant when the probability of the null hypothesis being correct is P<0.075.
In Example 5, multiparous cows were utilized from several small farms that were not utilizing an anionic diet to reduce the incidence of hypocalcemia in the cows. Within a few hours of calving, cows were administered one of four treatments. Six cows were not treated with any bolus after calving (No Bolus). Four cows were treated with intravenous calcium (10.5 g calcium in the form of calcium gluconate) after calving (IV Ca). Twenty-two cows received 2 boluses after calving that contained calcium salts and Solanum glaucophyllum leaf, supplying 78 g calcium and 1,25-dihydroxyvitamin D3 glycoside equivalent to 196 ug 1,25-dihydroxyvitamin D3 (Ca+SG Bolus). Twenty-four cows were treated at calving and again 12-24 hrs. later with commercial oral calcium salt boluses that supplied 40-44 g calcium each for a total calcium dose of 80-88 g, primarily from calcium chloride (Ca Bolus).

With `[Ca+2].[Cl-].[Cl-]` [calcium chloride], in the data set with blood calcium, the “calcium absorbed into the blood” value is on record as “about 4 g”, the “duration of increase of blood calcium” value was 6 to 8 h, the “increase of blood calcium” value was “approximately 1 mg/dl” and the “time to increase of blood calcium” value is at most 1 h.

calcium gluconate [Ca IV]: the “effect on calcium homeostasis mechanisms of the cow” value in data set [1] (10.5 g calcium intravenous) is reported as “inhibited the calcium homeostasis mechanisms”. Besides, the figures for the “plasma calcium concentration, rank among treatments” value in data set [1] (24 to 84 hours after calving) and in data set [1] (four hours after calving) were “lowest plasma calcium concentration” and “highest plasma calcium concentration”, respectively. Moreover, in data set [1] (days 2 and 3 following lactation), the “hypocalcemia versus no treatment” value is reported as “more hypocalcemia”.
